Assay [1] addresses T1, glutathione-S-transferase (GST) tagged LXRbeta LBD (ligand binding domain) (Homo sapiens, UniProt P55055).
T1 construct: purchased Invitrogen pv4658.pps
T1 sequence (P55055 222-460 limits assumed): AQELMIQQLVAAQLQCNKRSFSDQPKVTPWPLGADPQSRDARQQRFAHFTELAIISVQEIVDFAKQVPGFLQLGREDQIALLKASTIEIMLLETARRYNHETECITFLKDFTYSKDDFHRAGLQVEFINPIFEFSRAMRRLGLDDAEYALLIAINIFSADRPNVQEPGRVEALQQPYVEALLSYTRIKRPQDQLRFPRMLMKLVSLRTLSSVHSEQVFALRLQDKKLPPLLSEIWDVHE
As to the kind of experiment: LanthaScreen TR-FRET Liver X Receptor Coactivator Assay, co-activator recruitment to LXRbeta LBD. As to conditions: for Emax: read-out: LXR beta Activity @ max dose (%); for EC50: potency (Inflection Point, IP), co-activator recruitment to LXRbeta LBD, in relation to T0901317. Format: biochemical. Summed up:
(§1)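 GST-tagged LBD added to test compound, then fluorescein-labelled coactivator peptide plus terbium anti-GST antibody; incubated at room temperature, TR-FRET read. Potency given as inflection point and efficacy as Emax relative to reference dual agonist T0901317.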

Assay [2] addresses T2, glutathione-S-transferase (GST) tagged LXRalpha LBD (ligand binding domain) (Homo sapiens, UniProt Q13133).
T2 construct: purchased Invitrogen pv4655
T2 sequence (Q13133 209-447 limits assumed): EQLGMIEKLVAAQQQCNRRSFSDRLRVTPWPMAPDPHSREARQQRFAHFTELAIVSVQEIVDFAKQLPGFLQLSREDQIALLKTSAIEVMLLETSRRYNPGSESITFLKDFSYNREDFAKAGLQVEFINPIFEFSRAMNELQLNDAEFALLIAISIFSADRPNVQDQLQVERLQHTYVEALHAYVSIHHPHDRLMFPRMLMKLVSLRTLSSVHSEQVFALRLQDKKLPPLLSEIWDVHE
The experiment in a line: LanthaScreen TR-FRET Liver X Receptor Coactivator Assay, co-activator recruitment to LXRalpha LBD. Format: biochemical. As to conditions: for Emax: read-out: LXR alpha Activity @ max dose (%); for LXR alpha IP (nM) / EC50: potency (Inflection Point, IP), co-activator recruitment to LXRalpha LBD, in relation to T0901317. Summed up:
as §1

Where [3] appears, read: efficacy at max dose, in relation to reference dual agonist T0901317.

Like-named read-outs stand apart in the source and are kept apart here.

As for `CC(C)Oc1cccc([C@@](O)(C(=O)N2CCC(CC3CCN(c4ccc(C(=O)N(C)C)c(Cl)n4)CC3)CC2)C(F)(F)F)c1` [Example 7-91, 2-chloro-N,N-dimethyl-6-{4-[(1-{(2R)-3,3,3-trifluoro-2-hydroxy-2-[3-(1-methylethoxy)phenyl]propanoyl}piperidin-4-yl)methyl]piperidin-1-yl}pyridine-3-carboxamide], the Emax in assay [1] (setting [3]) is 58%; in assay [2] (setting [3]), 14%. The EC50 in assay [1] (read-out: LXR beta IP) amounted to 8 nM. The “LXR alpha IP (nM)” value in assay [2] was “NO IP”.

For the compound `CCOc1cccc([C@@](O)(C(=O)N2CCC(CC3CCN(c4ccc(C(=O)N(C)C)c(Cl)n4)CC3)CC2)C(F)(F)F)c1` [Example 7-92, 2-chloro-6-[4-({1-[(2R)-2-(3-ethoxyphenyl)-3,3,3-trifluoro-2-hydroxypropanoyl]piperidin-4-yl}methyl)piperidin-1-yl]-N,N-dimethylpyridine-3-carboxamide], the Emax in assay [1] (setting [3]) is 51%; in assay [2] (setting [3]) it was 8%. Also, in assay [1] (read-out: LXR beta IP), the EC50 came out at 6 nM. Further, the “LXR alpha IP (nM)” value in assay [2] is recorded as “NO IP”.

Turning to `CN(C)C(=O)c1ccc(N2CCC(CC3CCN(C(=O)[C@](O)(c4cc(Cl)cc(Cl)c4)C(F)(F)F)CC3)CC2)nc1Cl` [Example 7-93, 2-chloro-6-[4-({1-[(2R)-2-(3,5-dichlorophenyl)-3,3,3-trifluoro-2-hydroxypropanoyl]piperidin-4-yl}methyl)piperidin-1-yl]-N,N-dimethylpyridine-3-carboxamide], the Emax in assay [1] (setting [3]) is 55%. Besides, the EC50 in assay [1] (read-out: LXR beta IP) was determined as 6 nM. The “LXR alpha Activity @ max dose (%)” value in assay [2] (setting [3]) worked out at 1%. Further, the “LXR alpha IP (nM)” value in assay [2] is “NO IP”.

`CN(C)C(=O)c1ccc(N2CCC(CC3CCN(C(=O)C(O)(c4ccccc4)C4CCCC4)CC3)CC2)nc1Cl` (stereo not shown) [Example 7-94, 2-chloro-6-[4-({1-[cyclopentyl(hydroxy)phenylacetyl]piperidin-4-yl}methyl)piperidin-1-yl]-N,N-dimethylpyridine-3-carboxamide]: the EC50 in assay [1] (LXR beta IP (nM)) worked out at 72 nM. Also, the Emax is 62% in assay [1] and 10% in assay [2]. Also, the “LXR alpha IP (nM)” value in assay [2] is “NO IP”.

For the compound `CN(C)C(=O)c1ccc(N2CCC(CC3CCN(C(=O)C(O)(c4ccccc4)c4ccccc4)CC3)CC2)nc1Cl` [Example 7-95, 2-chloro-6-[4-({1-[hydroxy(diphenyl)acetyl]piperidin-4-yl}methyl)piperidin-1-yl]-N,N-dimethylpyridine-3-carboxamide], the EC50 in assay [1] (LXR beta IP (nM)) came out at 98 nM. For the same compound, the Emax in assay [1] amounted to 21%. Besides, in assay [2], the “LXR alpha IP (nM)” value was “NO IP” and the Emax was 1%.

`CN(C)C(=O)c1ccc(N2CCC(CC3CCN(C(=O)C(O)(c4ccccc4)c4ccsc4)CC3)CC2)nc1Cl` (stereo not shown) [Example 7-96, 2-chloro-6-[4-({1-[hydroxy(phenyl)thiophen-3-ylacetyl]piperidin-4-yl}methyl)piperidin-1-yl]-N,N-dimethylpyridine-3-carboxamide] showed an EC50 in assay [1] (LXR beta IP (nM)) of 89 nM. For the same compound, the Emax in assay [1] came to 23%. Also, in assay [2], the “LXR alpha IP (nM)” value is “NO IP” and the Emax was found to be 5%.

Regarding `CN(C)C(=O)c1ccc(N2CCC(CC3CCN(C(=O)C(O)(c4ccccc4)C4CCC4)CC3)CC2)nc1Cl` (stereo not shown) [Example 7-97, 2-chloro-6-[4-({1-[cyclobutyl(hydroxy)phenylacetyl]piperidin-4-yl}methyl)piperidin-1-yl]-N,N-dimethylpyridine-3-carboxamide], the EC50 in assay [1] (LXR beta IP (nM)) amounted to 40 nM; in assay [2] (LXR alpha IP (nM)), 1180 nM. The Emax is 98% in assay [1] and 38% in assay [2].

With `CN(C)C(=O)c1ccc(N2CCC(CC3CCN(C(=O)[C@](O)(c4ccccc4)C4CCCC4)CC3)CC2)nc1Cl` [Example 7-98, 2-chloro-6-[4-({1-[(2R)-2-cyclopentyl-2-hydroxy-2-phenylacetyl]piperidin-4-yl}methyl)piperidin-1-yl]-N,N-dimethylpyridine-3-carboxamide], the EC50 came out at 74 nM in assay [1] (LXR beta IP (nM)) and 1090 nM in assay [2] (LXR alpha IP (nM)). Moreover, the figures for the Emax in assay [1] and in assay [2] were 76% and 19%, respectively.

`CN(C)C(=O)c1ccc(N2CCC(CC3CCN(C(=O)C(O)(c4ccccc4)C4CC4)CC3)CC2)nc1Cl` (stereo not shown) [Example 7-99, 2-chloro-6-[4-({1-[cyclopropyl(hydroxy)phenylacetyl]piperidin-4-yl}methyl)piperidin-1-yl]-N,N-dimethylpyridine-3-carboxamide]: the EC50 in assay [1] (LXR beta IP (nM)) came to 48 nM; in assay [2] (LXR alpha IP (nM)), 2790 nM. The Emax in assay [1] was determined as 74%; in assay [2], 20%.

As for `CN(C)C(=O)c1ccc(N2CCC(CC3CCN(C(=O)C(O)(c4ccccc4)C4CCCCC4)CC3)CC2)nc1Cl` (stereo not shown) [Example 7-100, 2-chloro-6-[4-({1-[cyclohexyl(hydroxy)phenylacetyl]piperidin-4-yl}methyl)piperidin-1-yl]-N,N-dimethylpyridine-3-carboxamide], the EC50 in assay [1] (LXR beta IP (nM)) is 200 nM. Also, the Emax in assay [1] came to 37%. In assay [2], the “LXR alpha IP (nM)” value was “NO IP” and the Emax stood at 4%.

As to `COc1cc(F)cc([C@@](O)(C(=O)N2CCC(CC3CCN(c4ccc(C(=O)N(C)C)c(Cl)n4)CC3)CC2)C(F)(F)F)c1` [Example 7-101, 2-chloro-N,N-dimethyl-6-[4-({1-[(2R)-3,3,3-trifluoro-2-(3-fluoro-5-methoxyphenyl)-2-hydroxypropanoyl]piperidin-4-yl}methyl)piperidin-1-yl]pyridine-3-carboxamide], the Emax in assay [1] (setting [3]) is 84%; in assay [2] (setting [3]), 22%. The values for the EC50 in assay [1] (read-out: LXR beta IP) and in assay [2] (read-out: LXR alpha IP) were 4 nM and 41 nM, respectively.

Consider `COc1cc(F)cc([C@](O)(C(=O)N2CCC(CC3CCN(c4ccc(C(=O)N(C)C)c(Cl)n4)CC3)CC2)C(F)(F)F)c1` [Example 7-102, 2-chloro-N,N-dimethyl-6-[4-({1-[(2S)-3,3,3-trifluoro-2-(3-fluoro-5-methoxyphenyl)-2-hydroxypropanoyl]piperidin-4-yl}methyl)piperidin-1-yl]pyridine-3-carboxamide], for which the Emax in assay [1] (setting [3]) was 114%; in assay [2] (setting [3]), 16%. For the same compound, the EC50 in assay [1] (read-out: LXR beta IP) is 78 nM. Besides, the “LXR alpha IP (nM)” value in assay [2] was “NO IP”.

With `CN(C)C(=O)c1ccc(N2CCC(CC3CCN(C(=O)C(N)(c4ccccc4)C(F)(F)F)CC3)CC2)nc1Cl` (stereo not shown) [Example 7-103, 6-(4-{[1-(2-amino-3,3,3-trifluoro-2-phenylpropanoyl)piperidin-4-yl]methyl}piperidin-1-yl)-2-chloro-N,N-dimethylpyridine-3-carboxamide], the values for the Emax in assay [1] (setting [3]) and in assay [2] (setting [3]) were 122% and 47%, respectively. Besides, the EC50 in assay [1] (read-out: LXR beta IP) is 31 nM; in assay [2] (read-out: LXR alpha IP), 1680 nM.

In the case of `CN(C)C(=O)c1ccc(N2CCC(CC3CCN(C(=O)[C@](O)(c4cc(Cl)cc(Cl)c4)C(F)(F)F)CC3)CC2)nc1Cl` [Example 7-104, 2-chloro-6-[4-({1-[(2R)-2-(3,5-dichlorophenyl)-3,3,3-trifluoro-2-hydroxypropanoyl]piperidin-4-yl}methyl)piperidin-1-yl]-N,N-dimethylpyridine-3-carboxamide], the “LXR beta Activity @ max dose (%)” value in assay [1] (setting [3]) was 51%. Moreover, in assay [1] (read-out: LXR beta IP), the EC50 stood at 3 nM. Further, the “LXR alpha Activity @ max dose (%)” value in assay [2] (setting [3]) is on record as 0%. Further, the “LXR alpha IP (nM)” value in assay [2] is reported as “NO IP”.

Consider `COc1cc(Cl)cc(C(O)(C(=O)N2CCC(CC3CCN(c4ccc(C(=O)N(C)C)c(Cl)n4)CC3)CC2)C(F)(F)F)c1` (stereo not shown) [Example 7-105, 2-chloro-6-[4-({1-[2-(3-chloro-5-methoxyphenyl)-3,3,3-trifluoro-2-hydroxypropanoyl]piperidin-4-yl}methyl)piperidin-1-yl]-N,N-dimethylpyridine-3-carboxamide], for which the Emax came out at 30% in assay [1] (setting [3]) and 0% in assay [2] (setting [3]). The EC50 in assay [1] (read-out: LXR beta IP) was determined as 76 nM. Also, the “LXR alpha IP (nM)” value in assay [2] was “NO IP”.

As for `CN(C)C(=O)c1ccc(N2CCC(CC3CCN(C(=O)[C@](O)(c4cccc(OC5CC5)c4)C(F)(F)F)CC3)CC2)nc1Cl` [Example 7-106, 2-chloro-6-{4-[(1-{(2R)-2-[3-(cyclopropyloxy)phenyl]-3,3,3-trifluoro-2-hydroxypropanoyl}piperidin-4-yl)methyl]piperidin-1-yl}-N,N-dimethylpyridine-3-carboxamide], the values for the Emax in assay [1] (setting [3]) and in assay [2] (setting [3]) were 41% and 0%, respectively. Besides, the EC50 in assay [1] (read-out: LXR beta IP) was determined as 5 nM. In assay [2], the “LXR alpha IP (nM)” value is reported as “NO IP”.

Values taken from patent publication US10752587B2, “Homobispiperidinyl derivatives as liver X receptor beta agonists, compositions and their use” (Merck Sharp & Dohme Corp., priority 2015, dated 2020).
